Assay results as given in patent US20220033397A1, “PHARMACEUTICAL COMPOUNDS AND THEIR USE AS INHIBITORS OF UBIQUITIN SPECIFIC PROTEASE 19 (USP19)” (ALMAC DISCOVERY LIMITED, priority 2018, published 2022).

What follows are compounds tested against T1, Full-length USP19 (Homo sapiens, UniProt O94966) (assay: USP19 fluorescence polarisation (FP) homogeneous assay with Ubiquitin-Lys-TAMRA substrate). Settings: 2.5 nM USP19, 30 min pre-incubation, average of at least two duplicate experiments.
T1 construct: Full-length USP19 was purchased from Boston Biochem (E-576); purchased Boston Biochem E-576
T1 sequence (O94966 1-1318): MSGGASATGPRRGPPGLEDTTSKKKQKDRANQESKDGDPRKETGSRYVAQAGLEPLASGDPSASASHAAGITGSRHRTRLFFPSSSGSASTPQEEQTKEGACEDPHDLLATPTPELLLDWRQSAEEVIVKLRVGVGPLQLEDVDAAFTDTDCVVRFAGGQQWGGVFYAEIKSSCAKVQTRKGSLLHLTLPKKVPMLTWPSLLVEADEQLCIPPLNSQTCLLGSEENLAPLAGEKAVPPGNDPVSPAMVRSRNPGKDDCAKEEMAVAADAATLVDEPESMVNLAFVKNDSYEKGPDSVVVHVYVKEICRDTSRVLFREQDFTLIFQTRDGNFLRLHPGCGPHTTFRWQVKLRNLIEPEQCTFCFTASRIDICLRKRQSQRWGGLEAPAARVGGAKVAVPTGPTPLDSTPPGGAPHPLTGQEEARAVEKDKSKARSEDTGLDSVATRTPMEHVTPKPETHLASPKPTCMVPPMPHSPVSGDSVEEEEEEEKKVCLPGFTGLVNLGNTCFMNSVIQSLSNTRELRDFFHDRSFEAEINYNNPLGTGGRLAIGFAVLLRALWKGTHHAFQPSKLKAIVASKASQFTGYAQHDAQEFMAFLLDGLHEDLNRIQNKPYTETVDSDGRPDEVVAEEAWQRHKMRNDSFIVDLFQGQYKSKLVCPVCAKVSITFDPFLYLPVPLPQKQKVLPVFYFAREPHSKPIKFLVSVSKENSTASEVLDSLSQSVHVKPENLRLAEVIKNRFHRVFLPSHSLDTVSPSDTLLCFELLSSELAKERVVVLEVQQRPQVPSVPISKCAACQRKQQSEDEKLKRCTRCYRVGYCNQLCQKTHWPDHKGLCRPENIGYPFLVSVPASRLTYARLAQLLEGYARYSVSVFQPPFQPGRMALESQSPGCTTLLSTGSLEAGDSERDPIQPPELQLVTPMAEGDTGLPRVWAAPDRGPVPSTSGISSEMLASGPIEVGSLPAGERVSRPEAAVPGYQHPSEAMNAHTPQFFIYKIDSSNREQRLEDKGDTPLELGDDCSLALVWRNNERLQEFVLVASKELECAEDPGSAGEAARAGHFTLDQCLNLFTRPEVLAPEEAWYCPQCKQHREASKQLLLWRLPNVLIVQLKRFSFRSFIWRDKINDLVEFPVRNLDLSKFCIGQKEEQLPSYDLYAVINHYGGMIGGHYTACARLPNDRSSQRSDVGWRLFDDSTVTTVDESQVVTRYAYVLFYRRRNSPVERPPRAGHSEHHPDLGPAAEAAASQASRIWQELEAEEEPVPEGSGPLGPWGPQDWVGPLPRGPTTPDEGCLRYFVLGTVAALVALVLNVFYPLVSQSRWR
Type: biochemical
Summary of the method: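 Full-length USP19 preincubated 30 min at RT with inhibitor (200 μM to 2 μM series, 8–18 points) before adding 500 nM Ubiquitin-Lys-TAMRA substrate.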

IC50 [nM] | Structure (SMILES)
5000 to 50000 | O=C(NCC1(F)CCC1)N1CC[C@@](O)(Cn2cnc(-c3ccccc3)cc2=O)C2(CCCC2)C1 [Example 312, (S)—N-((1-Fluorocyclobutyl)methyl)-10-hydroxy-10-((6-oxo-4-phenylpyrimidin-1(6H)-yl)methyl)-7-azaspiro[4.5]decane-7-carboxamide]
500 to 5000 | CN(CC1CC1)C(=O)N1CC[C@@](O)(Cn2cnc(-c3ccccc3)cc2=O)C2(CCCC2)C1 [Example 313, (S)—N-(Cyclopropylmethyl)-10-hydroxy-N-methyl-10-((6-oxo-4-phenylpyrimidin-1(6H)-yl)methyl)-7-azaspiro[4.5]decane-7-carboxamide]
< 500 | O=C(N1CC[C@@](O)(Cn2cnc(-c3ccccc3F)cc2=O)C2(CCCC2)C1)N1CCNC[C@H]1c1ccccc1 [Example 314, 6-(2-Fluorophenyl)-3-(((S)-10-hydroxy-7-((R)-2-phenylpiperazine-1-carbonyl)-7-azaspiro[4.5]decan-10-yl)methyl)pyrimidin-4(3H)-one]
< 500 | O=C(N1CC[C@@](O)(Cn2cnc(-c3cccc(F)c3)cc2=O)C2(CCCC2)C1)N1CCNC[C@H]1c1ccccc1 [Example 315, 6-(3-Fluorophenyl)-3-(((S)-10-hydroxy-7-((R)-2-phenylpiperazine-1-carbonyl)-7-azaspiro[4.5]decan-10-yl)methyl)pyrimidin-4(3H)-one]
< 500 | O=C(N1CC[C@@](O)(Cn2cnc(-c3ccc(F)cc3)cc2=O)C2(CCCC2)C1)N1CCNC[C@H]1c1ccccc1 [Example 316, 6-(4-Fluorophenyl)-3-(((S)-10-hydroxy-7-((R)-2-phenylpiperazine-1-carbonyl)-7-azaspiro[4.5]decan-10-yl)methyl)pyrimidin-4(3H)-one]
< 500 | COc1ccccc1-c1cc(=O)n(C[C@]2(O)CCN(C(=O)N3CCNC[C@H]3c3ccccc3)CC23CCCC3)cn1 [Example 317, 3-(((S)-10-Hydroxy-7-((R)-2-phenylpiperazine-1-carbonyl)-7-azaspiro[4.5]decan-10-yl)methyl)-6-(2-methoxyphenyl)pyrimidin-4(3H)-one]
< 500 | CN(C)c1cc(=O)n(C[C@]2(O)CCN(C(=O)N3CCNC[C@H]3c3ccccc3)CC23CCCC3)cn1 [Example 318, 6-(Dimethylamino)-3-(((S)-10-hydroxy-7-((R)-2-phenylpiperazine-1-carbonyl)-7-azaspiro[4.5]decan-10-yl)methyl)pyrimidin-4(3H)-one]
< 500 | CNc1cc(=O)n(C[C@]2(O)CCN(C(=O)N3CCNC[C@H]3c3ccccc3)CC23CCCC3)cn1 [Example 319, 3-(((S)-10-Hydroxy-7-((R)-2-phenylpiperazine-1-carbonyl)-7-azaspiro[4.5]decan-10-yl)methyl)-6-(methylamino)pyrimidin-4(3H)-one]
< 500 | O=C(N1CC[C@@](O)(Cn2cnc(-c3ccccc3)cc2=O)C2(CCCC2)C1)N1CCNC[C@H]1c1cccc(F)c1 [Example 320, 3-(((S)-7-((R)-2-(3-Fluorophenyl)piperazine-1-carbonyl)-10-hydroxy-7-azaspiro[4.5]decan-10-yl)methyl)-6-phenylpyrimidin-4(3H)-one]
< 500 | O=C(N1CCC(O)(Cn2cnc(-c3ccccc3)cc2=O)C2(CCOCC2)C1)N1CCNC[C@H]1c1ccccc1 (stereo partly drawn) [Example 321, 3-((5-Hydroxy-2-((R)-2-phenylpiperazine-1-carbonyl)-9-oxa-2-azaspiro[5.5]undecan-5-yl)methyl)-6-phenylpyrimidin-4(3H)-one]
< 500 | CC1(C)CN(C(=O)N2CCNC[C@H]2c2ccccc2)CC[C@@]1(O)Cn1cnc(-c2ccccc2)cc1=O [Example 322, 3-(((S)-4-Hydroxy-3,3-dimethyl-1-((R)-2-phenylpiperazine-1-carbonyl)piperidin-4-yl)methyl)-6-phenylpyrimidin-4(3H)-one]
< 500 | O=C(N1CC[C@@](O)(Cn2cnc(-c3ccccc3)cc2=O)C2(CCCC2)C1)N1CCN(CC(F)(F)F)C[C@H]1c1ccccc1 [Example 323, 3-(((S)-10-Hydroxy-7-((R)-2-phenyl-4-(2,2,2-trifluoroethyl)piperazine-1-carbonyl)-7-azaspiro[4.5]decan-10-yl)methyl)-6-phenylpyrimidin-4(3H)-one]
< 500 | COc1cc(=O)n(C[C@]2(O)CCN(C(=O)N3CCNC[C@H]3c3ccccc3)CC23CCCC3)cn1 [Example 324, 3-(((S)-10-Hydroxy-7-((R)-2-phenylpiperazine-1-carbonyl)-7-azaspiro[4.5]decan-10-yl)methyl)-6-methoxypyrimidin-4(3H)-one]
< 500 | O=C(N1CCC(O)(Cn2cnc(-c3ccccc3)cc2=O)C2(CCOCC2)C1)N1CCOC[C@H]1c1ccccc1 (stereo partly drawn) [Example 325, 3-((5-Hydroxy-2-((R)-3-phenylmorpholine-4-carbonyl)-9-oxa-2-azaspiro[5.5]undecan-5-yl)methyl)-6-phenylpyrimidin-4(3H)-one]
< 500 | O=C(N1CC[C@@](O)(Cn2ccc(Cl)cc2=O)C2(CCCC2)C1)N1CCNC[C@H]1c1ccccc1 [Example 326, 4-Chloro-1-(((S)-10-hydroxy-7-((R)-2-phenylpiperazine-1-carbonyl)-7-azaspiro[4.5]decan-10-yl)methyl)pyridin-2(1H)-one]
< 500 | O=C(N1CC[C@@](O)(Cn2ccc(C3CC3)cc2=O)C2(CCCC2)C1)N1CCNC[C@H]1c1ccccc1 [Example 327, 4-Cyclopropyl-1-(((S)-10-hydroxy-7-((R)-2-phenylpiperazine-1-carbonyl)-7-azaspiro[4.5]decan-10-yl)methyl)pyridin-2(1H)-one]
< 500 | Cn1nccc1-c1ccn(C[C@]2(O)CCN(C(=O)N3CCNC[C@H]3c3ccccc3)CC23CCCC3)c(=O)c1 [Example 328, 1-(((S)-10-Hydroxy-7-((R)-2-phenylpiperazine-1-carbonyl)-7-azaspiro[4.5]decan-10-yl)methyl)-4-(1-methyl-1H-pyrazol-5-yl)pyridin-2(1H)-one]
< 500 | Cn1cc(-c2ccn(C[C@]3(O)CCN(C(=O)N4CCNC[C@H]4c4ccccc4)CC34CCCC4)c(=O)c2)cn1 [Example 329, 1-(((S)-10-Hydroxy-7-((R)-2-phenylpiperazine-1-carbonyl)-7-azaspiro[4.5]decan-10-yl)methyl)-4-(1-methyl-1H-pyrazol-4-yl)pyridin-2(1H)-one]
< 500 | O=C(N1CC[C@@](O)(Cn2ccc(N3CCCC3)cc2=O)C2(CCCC2)C1)N1CCNC[C@H]1c1ccccc1 [Example 330, 1-(((S)-10-Hydroxy-7-((R)-2-phenylpiperazine-1-carbonyl)-7-azaspiro[4.5]decan-10-yl)methyl)-4-(pyrrolidin-1-yl)pyridin-2(1H)-one]
< 500 | O=C(N1CCC(O)(Cn2cc(F)c(-c3ccccc3)cc2=O)C2(CCCC2)C1)N1CCNC[C@H]1c1ccccc1 (stereo partly drawn) [Example 331, 5-Fluoro-1-((10-hydroxy-7-((R)-2-phenylpiperazine-1-carbonyl)-7-azaspiro[4.5]decan-10-yl)methyl)-4-phenylpyridin-2(1H)-one]
500 to 5000 | O=C(N1CCC(O)(Cn2ccc(-c3ccccc3)c(F)c2=O)C2(CCCC2)C1)N1CCNC[C@H]1c1ccccc1 (stereo partly drawn) [Example 332, 3-Fluoro-1-((10-hydroxy-7-((R)-2-phenylpiperazine-1-carbonyl)-7-azaspiro[4.5]decan-10-yl)methyl)-4-phenylpyridin-2(1H)-one]
